Measurements: patent publication US20180201609A1 (AURIGENE DISCOVERY TECHNOLOGIES LIMITED, priority 2015, published 2018)
Structures can show the parent of a compound that is named as a salt.

Target: T1, IRAK-4 enzyme (Homo sapiens, UniProt Q9NWZ3)
T1 construct: purchased Millipore, USA
T1 sequence (Q9NWZ3 1-460): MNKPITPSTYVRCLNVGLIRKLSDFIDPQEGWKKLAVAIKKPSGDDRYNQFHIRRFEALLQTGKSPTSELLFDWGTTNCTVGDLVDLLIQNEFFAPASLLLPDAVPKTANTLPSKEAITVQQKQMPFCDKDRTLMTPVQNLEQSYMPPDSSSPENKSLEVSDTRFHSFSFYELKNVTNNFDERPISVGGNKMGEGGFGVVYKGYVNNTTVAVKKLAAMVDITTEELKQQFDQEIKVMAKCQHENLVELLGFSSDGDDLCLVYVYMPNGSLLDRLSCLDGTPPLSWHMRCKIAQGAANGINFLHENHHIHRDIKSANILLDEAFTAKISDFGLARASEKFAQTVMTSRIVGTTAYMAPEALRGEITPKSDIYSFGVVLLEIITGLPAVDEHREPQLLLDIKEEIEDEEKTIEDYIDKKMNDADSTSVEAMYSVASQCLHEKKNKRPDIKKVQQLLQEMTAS
Assay: IRAK-4 Biochemical Assay (TR-FRET)
Details: recombinant IRAK-4 kinase, 20 μM ATP

Compound	inhibition at 0.1 µM (0.1 μM compound) [%]	inhibition at 1 µM (1 μM compound) [%]	% inhibition of IRAK-4 activity @0.1 μM (0.1 μM compound) [%]	% inhibition of IRAK-4 activity @1 μM (1 μM compound) [%]
Cn1cc2cc(NC(=O)c3cncc(N4CCC(O)C4)n3)c(N3CCCCC3)cc2n1 (stereo not drawn) [Example 65, 6-(3-hydroxypyrrolidin-1-yl)-N-(2-methyl-6-(piperidin-1-yl)-2H-indazol-5-yl)pyrazine-2-carboxamide]	91	98		
Cn1cc2cc(NC(=O)c3cncc(N4CCC(O)C4)n3)c(C3CC3)cc2n1 (stereo not drawn) [Example 66, N-(6-cyclopropyl-2-methyl-2H-indazol-5-yl)-6-(3-hydroxypyrrolidin-1-yl)pyrazine-2-carboxamide hydrochloride]	23	75		
Cl.Cn1cc2cc(NC(=O)c3cncc(N4CCC(O)C4)n3)c(N3CCCCC3)cc2n1 (stereo not drawn) [Example 67, 6-(3-hydroxypyrrolidin-1-yl)-N-(2-methyl-6-(piperidin-1-yl)-2H-indazol-5-yl)pyrazine-2-carboxamide hydrochloride]			82	92
Cn1cc2cc(NC(=O)c3cccc(N4CCC(O)C4)n3)c(N3CCOCC3)cc2n1 (stereo not drawn) [Example 68, 6-(3-hydroxypyrrolidin-1-yl)-N-(2-methyl-6-morpholino-2H-indazol-5-yl)picolinamide]	75	96		
Cn1cc2cc(NC(=O)c3cc(N4CCC(O)C4)ccn3)c(N3CCCCC3)cc2n1 (stereo not drawn) [Example 69, 4-(3-hydroxypyrrolidin-1-yl)-N-(2-methyl-6-(piperidin-1-yl)-2H-indazol-5-yl)picolinamide]	7	9		
Cc1cc2nn(C)cc2cc1NC(=O)c1cccc(N2CCC(O)C2)n1 (stereo not drawn) [Example 70, N-(2,6-dimethyl-2H-indazol-5-yl)-6-(3-hydroxypyrrolidin-1-yl)picolinamide]	27	82		
Cn1cc2cc(NC(=O)c3cc(N4CCC(O)C4)ccn3)c(C3CC3)cc2n1 (stereo not drawn) [Example 71, N-(6-cyclopropyl-2-methyl-2H-indazol-5-yl)-4-(3-hydroxypyrrolidin-1-yl)picolinamide hydrochloride]	67	95		
Cn1cc2cc(NC(=O)c3ccnc(N4CCC(O)C4)n3)c(C3CC3)cc2n1 (stereo not drawn) [Example 72, N-(6-cyclopropyl-2-methyl-2H-indazol-5-yl)-2-(3-hydroxypyrrolidin-1-yl)pyrimidine-4-carboxamide]	29	86		
Cn1cc2cc(NC(=O)c3ccc(N4CCC(O)C4)cn3)c(N3CCCCC3)cc2n1 (stereo not drawn) [Example 73, 5-(3-hydroxypyrrolidin-1-yl)-N-(2-methyl-6-(piperidin-1-yl)-2H-indazol-5-yl)picolinamide]	10	51		
